These results are taken from patent US9108944B2, “Androgen receptor modulators and uses thereof” (ARAGON PHARMACEUTICALS, INC., priority 2010, dated 2015).

By IC50 is commonly meant the concentration needed to halve the response being measured.

For the experiment, the target named is T1, AR-VP16 (Homo sapiens, UniProt P10275).
T1 sequence (P10275 560-920 limits assumed): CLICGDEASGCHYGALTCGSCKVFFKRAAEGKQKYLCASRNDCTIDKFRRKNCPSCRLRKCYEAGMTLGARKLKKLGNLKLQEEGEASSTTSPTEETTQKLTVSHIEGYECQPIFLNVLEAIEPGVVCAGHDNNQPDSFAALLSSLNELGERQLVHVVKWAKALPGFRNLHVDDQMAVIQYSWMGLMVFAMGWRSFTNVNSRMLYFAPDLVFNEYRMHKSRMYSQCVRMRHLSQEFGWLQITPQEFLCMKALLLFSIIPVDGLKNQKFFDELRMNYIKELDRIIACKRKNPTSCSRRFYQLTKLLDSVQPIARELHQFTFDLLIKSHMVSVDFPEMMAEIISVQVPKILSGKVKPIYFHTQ
The experiment in a line: AR-VP16 DNA Binding Assay, antagonist mode (HepG2 cells, 0.1 nM R1881). The class given is cell-based. The protocol:
Cells were transiently transfected using Lipofectin (Life Technologies) according to the manufacturer's protocol. […] Transfected cells were incubated overnight then treated with ligand. […] For antagonist assays, the compounds were serially diluted and 50 μL of compound with RPMI supplemented with charcoal stripped serum plus methyltrienolone (R1881) were added to the cells. The final R1881 concentration used in the antagonist assays was 0.1 nM. Following 48 hour incubation the medium was removed and the cells were lysed in 40 μL of lysis buffer (25 mM Tris Phosphate, 2 mM CDTA, 10% Glycerol, 0.5% Triton X-100, 2 mM DTT).

`N#Cc1ncc(N2C(=O)C3(CCC3)N(c3ccccc3)C2=S)cc1C(F)(F)F` [Compound 48, 5-(8-Oxo-5-phenyl-6-thioxo-5,7-diazaspiro[3.4]octan-7-yl)-3-(trifluoromethyl)picolinonitrile] registered an IC50 below 1000 nM. The molecule `N#Cc1ncc(N2C(=O)C3(CCC3)N(c3ccc4ccncc4c3)C2=S)cc1C(F)(F)F` [Compound 52, 5-(5-(Isoquinolin-7-yl)-8-oxo-6-thioxo-5,7-diazaspiro[3.4]octan-7-yl)-3-(trifluoromethyl)picolinonitrile] registered an IC50 below 1000 nM.

`N#Cc1ncc(N2C(=O)C3(CCC3)N(C3CCCCC3)C2=S)cc1C(F)(F)F` [Compound 53, 5-(5-Cyclohexyl-8-oxo-6-thioxo-5,7-diazaspiro[3.4]octan-7-yl)-3-(trifluoromethyl)picolinonitrile]: the concentration for half-maximal inhibition (IC50) was below 1000 nM. Then `N#Cc1ccc(N2C(=O)C3(CCC3)N(c3ccc(O)c(F)c3)C2=S)c2cccnc12` [Compound 55, 5-(5-(3-Fluoro-4-hydroxyphenyl)-8-oxo-6-thioxo-5,7-diazaspiro[3.4]octan-7-yl)quinoline-8-carbonitrile], with below 1000 nM.

Turning to `N#Cc1ccc(N2C(=S)N(c3cnc(C#N)c(C(F)(F)F)c3)C(=O)C23CCC3)cc1F` [Compound 56, 5-(5-(4-Cyano-3-fluorophenyl)-8-oxo-6-thioxo-5,7-diazaspiro[3.4]octan-7-yl)-3-(trifluoromethyl)picolinonitrile], the 50% inhibitory concentration (IC50) was below 1000 nM. As for `CNC(=O)c1ccc(N2C(=S)N(c3cnc(C#N)c(Cl)c3)C(=O)C23CCC3)cc1F` [Compound 58, 4-(7-(5-Chloro-6-cyanopyridin-3-yl)-8-oxo-6-thioxo-5,7-diazaspiro[3.4]octan-5-yl)-2-fluoro-N-methylbenzamide], the figure is below 1000 nM; as for `N#Cc1ncc(N2C(=O)C3(CCC3)N(c3ccc(O)cc3F)C2=S)cc1C(F)(F)F` [Compound 64, 5-(5-(2-Fluoro-4-hydroxyphenyl)-8-oxo-6-thioxo-5,7-diazaspiro[3.4]octan-7-yl)-3-(trifluoromethyl)picolinonitrile], below 1000 nM; as for `CNC(=O)c1ccc(N2C(=S)N(c3cnc(C#N)c4ccccc34)C(=O)C23CCC3)cc1F` [Compound 66, 4-(7-(1-Cyanoisoquinolin-4-yl)-8-oxo-6-thioxo-5,7-diazaspiro[3.4]octan-5-yl)-2-fluoro-N-methylbenzamide], below 1000 nM. `N#Cc1ncc(N2C(=O)C3(CCC3)N(c3cccc(CO)c3)C2=S)cc1C(F)(F)F` [Compound 67, 5-(5-(3-(Hydroxymethyl)phenyl)-8-oxo-6-thioxo-5,7-diazaspiro[3.4]octan-7-yl)-3-(trifluoromethyl)picolinonitrile] yielded a half-inhibitory concentration (IC50) below 1000 nM. Then `N#Cc1ccc(N2C(=S)N(c3cnc(C#N)c(C(F)(F)F)c3)C(=O)C23CCC3)c(F)c1` [Compound 70, 5-(5-(4-Cyano-2-fluorophenyl)-8-oxo-6-thioxo-5,7-diazaspiro[3.4]octan-7-yl)-3-(trifluoromethyl)picolinonitrile], with below 1000 nM. `N#Cc1ncc(N2C(=O)C3(CCC3)N(c3cc(F)ccc3F)C2=S)cc1C(F)(F)F` [Compound 74, 5-(5-(2,5-Difluorophenyl)-8-oxo-6-thioxo-5,7-diazaspiro[3.4]octan-7-yl)-3-(trifluoromethyl)picolinonitrile] returned a concentration for half-maximal inhibition (IC50) below 1000 nM. Then `N#Cc1ncc(N2C(=O)C3(CCC3)N(c3c(F)ccc(F)c3F)C2=S)cc1C(F)(F)F` [Compound 75, 5-(8-Oxo-6-thioxo-5-(2,3,6-trifluorophenyl)-5,7-diazaspiro[3.4]octan-7-yl)-3-(trifluoromethyl)picolinonitrile], with below 1000 nM; and `CNC(=O)c1ccc(N2C(=S)N(c3cnc(C#N)c(C(F)(F)F)c3)C(=O)C23CCC3)cc1` [Compound 79, 4-(7-(6-Cyano-5-(trifluoromethyl)pyridin-3-yl)-8-oxo-6-thioxo-5,7-diazaspiro[3.4]octan-5-yl)-N-methylbenzamide], with below 1000 nM.
